This test has as its system yeast cells. The test can be described thus: Time-lapse fluorescence microscopy of mitochondrial fission and fusion events in yeast. The settings on record: time-lapse after drug addition. The format is cell-based, S. cerevisiae. From the text:
To distinguish whether compounds specifically affect mitochondrial fission or fusion, we directly measure the rates of these events by examining the behavior of mitochondria using time-lapse fluorescence microscopy after drug addition. We routinely perform this type of experiment using a DeltaVision deconvolution microscope.
Formally, the small molecules we identified could produce their phenotypes by either inhibiting or activating fission or fusion. To distinguish the exact effects of mfisi-1 and other small molecules identified in our screens on mitochondrial dynamics, we have directly measured the rates of fission and fusion events after drug addition in yeast cells by examining the behavior of mitochondria using time-lapse fluorescence microscopy. […] In contrast, in DMSO treated control cells, both fission and fusion events were easily detected in the same time frame.

For `COc1cc(-n2c(S)nc3ccccc3c2=O)c(Cl)cc1Cl` [mfisi-1, 3-(2,4-Dichloro-5-methoxy-phenyl)-2-mercapto-3H-quinazolin-4-one], the “mitochondrial fission events / rate of fission” value is listed as “no detectable fission events were observed” and the “mitochondrial fusion events / rate of fusion” value is “fusion events occurred”.

The record behind these values is US8450333B2, “Molecules for regulating cell death” (The Regents of The University of California, priority 2003, dated 2013).
